Data on 11 molecules can be found in PubChem BioAssay (NCI).

Values joined by “and” are separate entries in the source; they are usually repeats but may differ in a detail not shown here. Equal values may be shown once.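 Exposure lasted 48 hours, with cells grown in 96-well plates and compounds tested at five concentrations. GI50 = concentration required for 50% inhibition of growth. Definition used: TGI = concentration required for complete inhibition of growth.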

Test systems include HOP-18 NSCLC; M19-MEL melanoma; SNB-78 CNS; KM20L2 colon; DMS 114 small cell lung; DLD-1 colon; DMS 273 small cell lung; NCI-H23 lung; LXFL 529 NSCLC; CAKI-1 renal; XF 498 CNS.
What all share (experiment): DTP human tumour cell line panel, 48 h

As to `Cc1ccccc1NC(=O)CSc1nnc(Cc2ccccc2)o1`, the TGI with HOP-18 NSCLC, in the assay with M19-MEL melanoma, in the assay with SNB-78 CNS, in the assay on KM20L2 colon, in the assay with DMS 114 small cell lung and in the assay on DLD-1 colon was greater than 100 µM in each case. In addition, the total growth inhibition concentration (TGI) in the assay on DMS 273 small cell lung, in the assay with NCI-H23 lung and in the assay on LXFL 529 NSCLC was greater than 100 µM each time.

Turning to `COc1nc(OC)nc(Sc2ccc(Sc3ccc(Sc4nc(OC)nc(OC)n4)cc3)cc2)n1`, the TGI in the assay on HOP-18 NSCLC, with M19-MEL melanoma, in the assay on CAKI-1 renal, in the assay with SNB-78 CNS, in the assay on KM20L2 colon and in the assay on DMS 114 small cell lung was greater than 100 µM throughout. The total growth inhibition concentration (TGI) in the assay on DLD-1 colon, with DMS 273 small cell lung, with XF 498 CNS, with NCI-H23 lung and in the assay on LXFL 529 NSCLC was greater than 100 µM each time.

As to `CCCOP(=S)(N1CC1)N1CC1`, the TGI with HOP-18 NSCLC, in the assay with M19-MEL melanoma, in the assay with CAKI-1 renal, with SNB-78 CNS, in the assay on KM20L2 colon and in the assay with DMS 114 small cell lung was greater than 100 µM each time. The TGI in the assay on DLD-1 colon, in the assay on DMS 273 small cell lung, in the assay on XF 498 CNS and in the assay with NCI-H23 lung was greater than 100 µM each time.

As to `CN(C)Cc1[nH]c2ccccc2c1C(=O)c1ccccc1`, the TGI with CAKI-1 renal, in the assay with KM20L2 colon, in the assay on DLD-1 colon, in the assay with DMS 273 small cell lung, with XF 498 CNS and in the assay with NCI-H23 lung was greater than 100 µM each time. Further, the TGI in the assay with LXFL 529 NSCLC was greater than 100 µM.

On to `CC(=O)C1=NN(c2ccccc2)C2(S1)SC(c1ccccc1)(c1ccccc1)c1ccccc12` (stereo not given), for which the TGI with HOP-18 NSCLC, in the assay with M19-MEL melanoma, with SNB-78 CNS, in the assay with KM20L2 colon, in the assay with DMS 114 small cell lung and with DLD-1 colon was greater than 100 µM each time. The concentration for total growth inhibition (TGI) with DMS 273 small cell lung was 73.6 µM; in the assay with NCI-H23 lung it was greater than 100 µM; in the assay with LXFL 529 NSCLC, greater than 100 µM.

Turning to `C(=N/NC1=NCCN1)/c1c2ccccc2c(/C=N\NC2=NCCN2)c2ccccc12`, the GI50 with HOP-18 NSCLC was 0.282 µM; in the assay on M19-MEL melanoma, 0.0605 µM; in the assay with SNB-78 CNS, 0.368 µM; in the assay with KM20L2 colon it was 0.0553 µM; with DMS 114 small cell lung, 0.0491 µM and 0.0606 µM; in the assay on DLD-1 colon, 1.32 µM. The GI50 is 0.0504 µM in the assay with DMS 273 small cell lung and 0.0524 µM in the assay with XF 498 CNS. Also, the TGI with HOP-18 NSCLC is 0.888 µM and 1.5 µM; in the assay on M19-MEL melanoma it was 0.355 µM and 0.258 µM; in the assay on CAKI-1 renal it was 2.78 µM and 5.02 µM and 6.65 µM; in the assay with SNB-78 CNS, 3.83 µM and 9.8 µM; with KM20L2 colon it was 2.16 µM and 1.22 µM; in the assay with DMS 114 small cell lung, 0.603 µM and 0.421 µM. Also, the TGI with DLD-1 colon is 27.9 µM and 250 µM; in the assay with XF 498 CNS it was 0.372 µM and 0.298 µM; in the assay with NCI-H23 lung, 0.647 µM and 1.4 µM and 1.03 µM.

In the case of `COc1ccc(C2C(Cl)C(=O)N2NC(=O)c2ccccc2O)cc1OC` (stereo not given), the TGI with M19-MEL melanoma was greater than 100 µM; in the assay with SNB-78 CNS it was greater than 100 µM; with DMS 114 small cell lung, greater than 100 µM; with DLD-1 colon, greater than 100 µM; in the assay with DMS 273 small cell lung, greater than 100 µM; in the assay on XF 498 CNS it was 47.7 µM. Further, in the assay with NCI-H23 lung, the TGI was greater than 100 µM.

Consider `CC#Cc1c(C#CC)c(OC)c2c(c1OC)C(=O)c1ccccc1C2=O`, for which the concentration for total growth inhibition (TGI) is greater than 100 µM with M19-MEL melanoma; greater than 100 µM in the assay with CAKI-1 renal; greater than 100 µM with KM20L2 colon; 89 µM with DMS 114 small cell lung; greater than 100 µM in the assay on DLD-1 colon; greater than 100 µM in the assay with DMS 273 small cell lung. Also, the total growth inhibition concentration (TGI) in the assay with XF 498 CNS, in the assay on NCI-H23 lung and in the assay with LXFL 529 NSCLC was greater than 100 µM each time.

As to `O=C1c2ccccc2C(=O)c2c(O)c(NCCNCCO)cc(O)c21`, the TGI in the assay on HOP-18 NSCLC turned out to be 18.8 µM; in the assay on M19-MEL melanoma, 15.2 µM; with CAKI-1 renal, 14.2 µM; in the assay on SNB-78 CNS, 18.7 µM; in the assay on KM20L2 colon it was 16.1 µM; in the assay with DMS 114 small cell lung, 16.1 µM. The total growth inhibition concentration (TGI) with DLD-1 colon was 11.1 µM; in the assay on DMS 273 small cell lung, 12 µM; with XF 498 CNS it was 19 µM; in the assay on NCI-H23 lung, 16.7 µM; in the assay on LXFL 529 NSCLC it was 18.1 µM.

In the case of `O=C1Cc2ccccc2CCc2ccsc21`, the TGI in the assay with HOP-18 NSCLC, in the assay with M19-MEL melanoma, in the assay with CAKI-1 renal, with SNB-78 CNS, with KM20L2 colon and with DLD-1 colon was greater than 100 µM throughout. Besides, the TGI in the assay with DMS 273 small cell lung, with XF 498 CNS, in the assay with NCI-H23 lung and with LXFL 529 NSCLC was greater than 100 µM in each case.

Turning to `CC1(C)N=C(Oc2ccccc2)n2nccc2N1`, the TGI in the assay with HOP-18 NSCLC, in the assay with M19-MEL melanoma, with CAKI-1 renal, in the assay with KM20L2 colon, in the assay on DMS 114 small cell lung and in the assay on DLD-1 colon was greater than 100 µM throughout. In addition, the TGI in the assay with DMS 273 small cell lung, in the assay with XF 498 CNS, in the assay on NCI-H23 lung and with LXFL 529 NSCLC was greater than 100 µM each time.

In general, TGI refers to the concentration giving total growth inhibition. High values mean lower sensitivity of the cells, low ones greater sensitivity of the cells. One may read the GI50 as the concentration that inhibits growth by half.
